The text below walks through data of patent US20200325156A1, “HETEROARYL AMIDE COMPOUNDS, PREPARATION METHOD THEREFOR, PHARMACEUTICAL COMPOSITIONS THEREOF, AND APPLICATIONS THEREOF” (Rui Jin Hospital Affiliated to Shanghai Jiao Tong …, priority 2017, published 2020).

Assay type in all cases: cell-based
Assay [1] deals with Human lung cancer cells A549. Kind of assay: MTS cell growth inhibition, A549. The note with it: compound concentration 10 μM, 48 h, MTS, read-out: Inhibition rate against A549 at 10 μM (%). The method, then: (§1) 1) Medium: DMEM (Dulbecco's modified eagle medium) or RPMI1640 (containing 10% fetal bovine serum, 100 μg/mL ampicillin, 100 μg/mL streptomycin).
(§2) 2) Reagent: MTS reaction solution (containing 2 mg/mL of MTS (3-(4,5-dimethylthiazol-2-yl)-5-(3-carboxymethoxyphenyl)-2-(4-sulfophenyl)-2H-tetrazolium, inner salt); 100 μg/mL PES ([…])).
(§3) Human promyelocytic leukemia cells HL-60 (2×10^4 cells/well) cultured in vitro were incubated into a 96-well culture plate, the volume of cell-culture medium was 90 μL, and then 10 μL of the compound at each gradient concentration was added (the highest concentration was 10 μM, which was diluted stepwise by ⅓, and 8 concentration points were set in total; the system contained 0.1% DMSO (dimethyl sulfoxide)). The cell plate with uniformly mixed compound was cultured in a cell culture incubator (37° C.; 5% CO2) for 48 h, then 20 μμL of MTS reaction solution was added, uniformly mixed and incubated in the cell culture incubator (37° C.; 5% CO2) for 1-4 hr; OD values at 490 nm were measured by a microplate reader (VARIOSKAN FLASH, Thermo). Three parallels were set in each group of experiments, with 0.1% (a final concentration) DMSO as a negative control, and a medium without cells and compounds as a blank control. The cell growth inhibition rate was calculated by the following formula:
(§4) Cell growth inhibition rate%=1−(ODexperimental group−ODblank group)/(ODnegative group−ODblank group)×100%
(§5) 4) IC50 calculation: The semi-inhibitory concentration of the compound acting on cell was calculated using GradPad Prism 5 software according to the measured cell growth inhibition rate.
(§6) Human lung cancer cells A549, human gastric cancer cells BGC-823, human liver cancer cells HepG-2 and human breast cancer cells MCF-7, human osteosarcoma cells U2OS, human prostate cancer cells LNCAP cultured in vitro were added in a 96-well culture plate at 1,000-10,000 cells/well, incubated until adherence, and then the compound was added. As to other procedures, please refer to the method (1) above.

In assay [2] the test system is human gastric cancer cells BGC-823. Kind of assay: MTS cell growth inhibition, BGC-823. The note with it: 48 h; for inhibition at 10 µM: compound concentration 10 μM, read-out: Inhibition rate against BGC-823 at 10 μM (%); for IC50: growth inhibition. The method, then: as §1, §2, §3, §4, §5, §6
Assay [3] concerns human liver cancer cells HepG-2. As to the kind of experiment: MTS cell growth inhibition, HepG-2. The note with it: 48 h; for inhibition at 10 µM: HepG2, compound concentration 10 μM, read-out: Inhibition rate against HepG-2 at 10 μM (%); for IC50: HepG2, growth inhibition. The method, then: as §1, §2, §3, §4, §5, §6
The subject of assay [4] is human breast cancer cells MCF-7. Kind of assay: MTS cell growth inhibition, MCF-7. Particulars: MCF7, compound concentration 10 μM, 48 h, read-out: Inhibition rate against MCF-7 at 10 μM (%). As to the method:
as §1, §2, §3, §4, §5, §6

Assay [5] deals with Human promyelocytic leukemia cells HL-60. Kind of assay: MTS cell growth inhibition, HL-60. Particulars: for inhibition at 10 µM / IC50: Homo sapiens, HL-60, 48 h, MTS; for inhibition at 10 µM: compound concentration 10 μM, read-out: Inhibition rate against HL-60 at 10 μM (%); for IC50: growth inhibition; for growth inhibitory activity on HL-60 (in words): summary of Tables 3 and 4. The method, then:
as §1, §2, §3, §4, §5

For assay [6], the system named is human osteosarcoma cells U2OS. Kind of assay: MTS cell growth inhibition, U2OS. Particulars: for inhibition at 10 µM / IC50: Homo sapiens, U2OS, 48 h, MTS; for inhibition at 10 µM: compound concentration 10 μM, read-out: Inhibition rate against U2OS at 10 μM (%); for IC50: growth inhibition; for growth inhibitory activity on U2OS (in words): summary of Tables 3 and 4. The method, then:
as §1, §2, §3, §4, §5, §6

Assay [7] has as its system human prostate cancer cells LNCAP. As to the kind of experiment: MTS cell growth inhibition, LNCAP. Particulars: for inhibition at 10 µM / IC50: Homo sapiens, LNCaP, 48 h, MTS; for inhibition at 10 µM: compound concentration 10 μM, read-out: Inhibition rate against LNCAP at 10 μM (%); for IC50: growth inhibition; for growth inhibitory activity on LNCAP (in words): summary of Tables 3 and 4. The method, then: as §1, §2, §3, §4, §5, §6

As a reminder, the inhibition is the relative decrease from the control value, in per cent. For orientation: IC50 means the concentration that gives 50% inhibition. A higher IC50 goes with lower potency. With `O=C(Nc1ccc(OC(F)(F)F)cc1)c1cc2scnc2[nH]1` [Compound I-6], the inhibition at 10 µM in assay [1] came to 6.3%; in assay [2], 64.5%; in assay [3], 66.5%; in assay [4], 3.4%; in assay [5], 69.1%; in assay [6], 56.2%. Moreover, the inhibition at 10 µM in assay [7] turned out to be 55.8%. For the same compound, the half-inhibitory concentration (IC50) in assay [2] is 0.582 µM; in assay [3] it was 1.99 µM; in assay [5] it was 217 nM; in assay [6], 0.929 µM; in assay [7] it was 0.319 µM.
As to `COC(=O)c1ccc(NC(=O)c2cc3scnc3[nH]2)cc1` [Compound I-8], the inhibition at 10 µM in assay [1] was determined as 56.8%; in assay [2], 72.2%; in assay [3], 58.1%; in assay [4] it was 21.2%; in assay [5] it was 69.4%; in assay [6], 50.9%. For the same compound, the concentration for half-maximal inhibition (IC50) in assay [5] was determined as 1780 nM; in assay [6], 6.35 µM; in assay [7], 6.04 µM.
For `O=C(Nc1ccc(C(F)(F)F)cc1)c1cc2scnc2[nH]1` [Compound I-11], the inhibition at 10 µM in assay [1] was 7.6%; in assay [2], 58.8%; in assay [3], 62.9%; in assay [4], 7.4%; in assay [5], 71.2%; in assay [6] it was 56.2%. Further, the inhibition at 10 µM in assay [7] amounted to 56.1%. The IC50 in assay [2] was 0.849 µM; in assay [3], 1.47 µM; in assay [5], 653 nM; in assay [6], 1.51 µM; in assay [7], 5.26 µM.
As to `COc1ccc(NC(=O)c2cc3scnc3[nH]2)cc1` [Compound I-12], the inhibition at 10 µM in assay [1] came to 9.3%; in assay [2] it was 47.4%; in assay [3], 58.3%; in assay [4], 5.9%; in assay [5], 68.9%; in assay [6], 57.7%. Besides, the inhibition at 10 µM in assay [7] came to 54.6%. In addition, the IC50 in assay [2] is 0.952 µM; in assay [3], 0.223 µM; in assay [5] it was 590 nM; in assay [6], 1.52 µM; in assay [7], 6.31 µM.
`CN(C)c1ccc(NC(=O)c2cc3scnc3[nH]2)cc1` [Compound I-13]: the inhibition at 10 µM in assay [1] is 3.4%; in assay [2], 54.3%; in assay [3], 54.7%; in assay [4], under 0%; in assay [5] it was 69.7%; in assay [6], 53.2%. Besides, the inhibition at 10 µM in assay [7] is 48.6%. Further, the IC50 is 1.11 µM in assay [2]; 1.93 µM in assay [3]; 1300 nM in assay [5]; 2.68 µM in assay [6]; over 10 µM in assay [7].
On to `CCN(CC)c1ccc(NC(=O)c2cc3scnc3[nH]2)cc1` [Compound I-15], for which the inhibition at 10 µM stood at 69.4% in assay [1]; 71.7% in assay [2]; 57.8% in assay [3]; 23.8% in assay [4]; 63.2% in assay [5]; 53.5% in assay [6]. Besides, the IC50 was 2710 nM in assay [5], over 10 µM in assay [6] and over 10 µM in assay [7].
On to `O=C(Nc1ccc([N+](=O)[O-])cc1)c1cc2scnc2[nH]1` [Compound I-16], for which the inhibition at 10 µM in assay [1] is 32.4%; in assay [2], 63.3%; in assay [3], 38.6%; in assay [4], 17.6%; in assay [5], 44.6%; in assay [6], 40.2%. Also, the inhibition at 10 µM in assay [7] was found to be 58%.
On to `O=C(NCc1ccccc1-c1ccncc1)c1cc2scnc2[nH]1` [Compound I-22], for which the inhibition at 10 µM stood at 54.8% in assay [1]; 64.6% in assay [2]; 48.9% in assay [3]; 15.1% in assay [4]; 65.2% in assay [5]; 50% in assay [6]. Further, in assay [7], the inhibition at 10 µM turned out to be 64.3%. Also, the half-inhibitory concentration (IC50) came out at 672 nM in assay [5], 3.66 µM in assay [6] and 2.57 µM in assay [7].
Consider `O=C(NCc1ccccc1-c1cccnc1)c1cc2scnc2[nH]1` [Compound I-23], for which the inhibition at 10 µM in assay [1] amounted to 53.4%; in assay [2], 71.1%; in assay [3], 60.4%; in assay [4] it was 27%; in assay [5], 70.5%; in assay [6], 56%. Also, in assay [7], the inhibition at 10 µM was determined as 64.4%. Also, the half-maximal inhibitory concentration (IC50) in assay [5] was 475 nM; in assay [6] it was 2.93 µM; in assay [7], 1.58 µM.
Take `O=C(NCc1ccccc1-c1ccsc1)c1cc2scnc2[nH]1` [Compound I-24]: the inhibition at 10 µM was 20.1% in assay [1]; 51.2% in assay [2]; 38.2% in assay [3]; 31.5% in assay [4]; 64.3% in assay [5]; 37.6% in assay [6]. Besides, the inhibition at 10 µM in assay [7] came out at 48.7%. Also, the results for the half-inhibitory concentration (IC50) in assay [5], in assay [6] and in assay [7] were 2300 nM, 2.75 µM and 0.849 µM, respectively.
With `O=C(NCc1ccccc1-c1ccco1)c1cc2scnc2[nH]1` [Compound I-26], the inhibition at 10 µM was under 0% in assay [1]; 23.4% in assay [2]; 29.7% in assay [3]; 3.1% in assay [4]; 64.8% in assay [5]; 44.5% in assay [6]. In addition, in assay [7], the inhibition at 10 µM came out at 44.9%. Moreover, the IC50 was found to be 3210 nM in assay [5], 6.17 µM in assay [6] and 0.163 µM in assay [7].
As for `O=C(NCc1ccccc1-c1ccoc1)c1cc2scnc2[nH]1` [Compound I-27], the inhibition at 10 µM stood at 67.9% in assay [1]; 55.1% in assay [2]; 43.2% in assay [3]; 1.7% in assay [4]; 68.8% in assay [5]; 44.9% in assay [6]. Also, the IC50 in assay [5] worked out at 0.012 nM; in assay [6] it was 0.006 µM; in assay [7], 0.032 µM. Besides, in assay [5], the “growth inhibitory activity on HL-60 (in words)” value is given as “relatively good growth inhibitory activity”. Besides, in assay [6], the “growth inhibitory activity on U2OS (in words)” value was “relatively good growth inhibitory activity”. The “growth inhibitory activity on LNCAP (in words)” value in assay [7] is listed as “relatively good growth inhibitory activity”.
`O=C(NCc1ccccc1-c1cc2ccccc2o1)c1cc2scnc2[nH]1` [Compound I-28]: the inhibition at 10 µM in assay [1] was found to be 50.3%; in assay [2] it was 60.3%; in assay [3], 44.4%; in assay [4] it was 21%; in assay [5] it was 74.8%; in assay [6] it was 48.7%. Also, the inhibition at 10 µM in assay [7] was found to be 71%. For the same compound, the concentration for half-maximal inhibition (IC50) was 5 nM in assay [5], 0.928 µM in assay [6] and 0.13 µM in assay [7]. Further, the “growth inhibitory activity on HL-60 (in words)” value in assay [5] is recorded as “relatively good growth inhibitory activity”. Further, the “growth inhibitory activity on U2OS (in words)” value in assay [6] is listed as “relatively good growth inhibitory activity”. Also, the “growth inhibitory activity on LNCAP (in words)” value in assay [7] is listed as “relatively good growth inhibitory activity”.
`CSc1ccc(OCc2cccc(NC(=O)c3cc4scnc4[nH]3)c2)cc1` [Compound I-31]: the inhibition at 10 µM in assay [1] is under 0%; in assay [2] it was 20.4%; in assay [3], 18.5%; in assay [4], 13.9%; in assay [5], 71.8%; in assay [6] it was 54.9%. The inhibition at 10 µM in assay [7] came out at 59.3%. The IC50 worked out at 491 nM in assay [5], 8.92 µM in assay [6] and 2.6 µM in assay [7].
